{
  "source": "patent US5639881A",
  "about": "“Synthesis and elucidation of pyrimido (4,5-Q) quinazoline derivatives” (priority 1991, dated 1997)",
  "key": {"[1]": {"details": "reduced capability to cycle between reduced and oxidized forms; cited from earlier work"}, "physchem": {"assay": "physchem", "assay_type": "physicochemical", "text": "(§1) The mechanism of 38 and 39 formation from 28 is discussed in conjunction with Scheme VI. The pH-rate data in FIG. 1 indicate that rate-determining chloride elimination occurs from the neutral, monoanion, dianion, and trianion forms of 28. Plateaus corresponding to the first three eliminations are indicated on FIG. 1. The increasing rates above pH 11 may pertain to equilibrium trianion formation and rate-determining elimination of chloride from the trianion. Consideration of rate-determining chloride elimination from the various forms of 28 provides the rate law shown in equation 1 [formula] where the rate and equilibrium constants are those shown in Scheme VI. The numerical values for these constants (shown in Scheme VI) were obtained by computer-fitting the data in FIG. 1 to equation 1. The solid line in FIG. 1 was then generated from equation 1 substituted with these constants. The independently determined pKa for monoanion formation (8.26±0.15) is in agreement with the kinetic pKa value (8.3). Thus, the kinetically-determined pKa values in Scheme VI represent actual acid dissociations rather than mixtures of constants. [drawing 5]\n(§2) In aerobic aqueous buffer, both 43 and 44 are converted to the corresponding quinones {Scheme IX) by first-order processes. […] The solid curve of Plot A was generated from the rate law, kobsd =k1 +k2 Ka1 /(aH +Ka1), where k1 is the rate of oxidation of the neutral species (1×10^-3 sec^-1), k2 is the rate of oxidation of the hydroquinone monoanion (0.046 sec^-1), pKa1 is the acid dissociation constant (7.78), and aH is the proton activity determined with a pH meter. The acid dissociation constant obtained from the pH-rate data is nearly the same as the value determined previously, 8.26±0.15.1"}, "colon and breast cancers": {"system": "colon and breast cancers", "details": "for IC50: Homo sapiens; for antitumor activity: colon and breast cancers"}, "[2]": {"assay": "lipophilicity (statement)"}, "[3]": {"assay_type": "physicochemical", "text": "The hydrolysis of 28 was followed spectrophotometrically at 430 nm in anaerobic aqueous buffer over a pH range of 6 to 12 with [28]=5×10^-5 M. Absorbance vs. time plots for hydrolysis are first order in character, with the first-order rate constants (kobsd)independent of buffer concentration but dependent on pH as shown in FIG. 1. The use of known hydroquinone and quinone extinction coefficients at 430 nm permitted the calculation of product yields: 69±1% 38 and 31±1% 39 regardless of the pH (product structures shown in Scheme VI). The accuracy of the yield determinations was enhanced by the intense hydroquinone visible spectrum and the absence of visible absorbances for the quinone derivative. Product isolation studies confirmed the presence of 39.\nas §1\nThe hydrolysis of 35 in anaerobic buffer proceeds by a first-order process to afford 42 as the sole product. […] The pH-rate profile, obtained over the pH range of 5 to 8, is a straight line of slope +1. […] Computer fitting the pH-rate data to kobsd =k1 Ka1 /aH, and substituting pKa1 =10.3, provides and elimination rate constant of k1 =24 sec^-1.\n(§3) Kinetic Studies of Hydrolysis and Oxidation. The hydrolytic studies of 28 and 35 were carried out in anaerobic aqueous buffer, and the reoxidation studies of 43 and 44 were carried out in aerobic aqueous buffer at 30.0°±0.2° C. The anaerobic experiments were carried out with Thunberg cuvettes as previously described. A dimethyl sulfoxide stock of the compound to be studied was prepared fresh, and 50 μL of this stock was added to 2.95 mL of buffer. The absorbance vs time data were obtained on a PERKIN-ELMER 559 or a Lambda-3 UV-vis spectrophotometer and fit to a first-order rate law."}, "[4]": {"assay": "quinone methide trapping with added 2-mercaptoethanol", "assay_type": "physicochemical", "details": "10 to 100X excess of mercaptoethanol", "text": "Chloride elimination from the neutral and anionic forms of 28 affords an equilibrating mixture of protonated (36), neutral (37), and anionic (37^-) quinone methides. Proton trapping by 37^-, in competition with water trapping of 36 and 37, then affords a mixture of 38 and 39. Evidence of steady-state intermediates capable of trapping nucleophiles (36 and 37) was obtained by adding 10 to 100X excess of Z-mercaptoethanol over 28. […] The presence mercaptoethanol results in formation of a hydroquinone (nucleophile-trapped) product 40 and no quinone 39, however. Thus, quinone methide formation must occur in a rate determining step, followed by its relatively rapid trapping by the mercaptide nuceophile. The mercaptoethanol trapping studies of benzimidazole (See: Skibo, E. B., J. Org. Chem. 1986, 51, 522) and quinazoline (See: Lemus et al., op. cit.) based quinone methides likewise provided evidence of a steady-state species."}, "[5]": {"assay_type": "physicochemical", "procedure": "Oxygen Reactivity. In order to assess the capability of the title systems to generate reactive oxygen species by quinone/hydroquinone cycling, the rate laws were determined for oxygen oxidation of 43 and 44, Scheme IX. These respective hydroquinones are analogues of 28 and 35 without leaving groups present. As expected, the internal hydrogen bonds of 43 slow oxidation at high pH while the absence of hydrogen bonds in 44 result in stopped flow oxidations under these conditions. However, the crossing of the pH-rate profiles near neutrality (FIG. 3) results in similar rates of oxidation for both systems at physiological pH.\nas §2, §3", "remark": "listed apart in the source"}, "[6]": {"details": "value determined previously; cited from earlier work"}, "[7]": {"details": "read-out: IC50 values as low as"}, "[8]": {"details": "regardless of pH (pH 6 to 12), 5×10^-5 M, 430 nm"}, "[9]": {"details": "aerobic aqueous buffer, 30.0 °C"}},
  "note": "Read-outs that look alike come from different tables or passages of the source.",
  "data": [
    {"smiles": "COc1cccc2c1C(=N)c1c(O)c3c(c(O)c1C2=O)C[C@@](O)(C(C)=O)C[C@@H]3O[C@H]1C[C@H](N)[C@H](O)[C@H](C)O1", "note": "[5-iminodaunorubicin]", "values": [
      {"measurement": "cardiotoxicity", "setting": "[1]", "value": "does reduce cardiotoxicity"}
    ]},
    {"smiles": "COc1c2nc(CCl)n(C)c(=O)c2c(OC)c2nc(CCl)n(C)c(=O)c12", "note": "[compound 16, 2,7-Bis(chloromethyl)-5,10-dimethoxy-3,8-dimethylpyrimido [4,5-g]quinazoline-4,9(3H,8H)-dione]", "values": [
      {"measurement": "ionization at physiological pH", "setting": "physchem", "value": "will not ionize at physiological pH"},
      {"measurement": "IC50", "setting": "colon and breast cancers; [7]", "value": "≥ 20", "unit": "nM"}
    ]},
    {"smiles": "COc1c2nc(CBr)n(C)c(=O)c2c(OC)c2nc(CBr)n(C)c(=O)c12", "note": "[compound 17, 2,7-Bis (bromomethyl)-5,10-dimethoxy-3,8-dimethylpyrimido[4,5-g]quinazoline-4,9(3H,8H)-dione]", "values": [
      {"measurement": "ionization at physiological pH", "setting": "physchem", "value": "will not ionize at physiological pH"},
      {"measurement": "lipophilicity", "setting": "[2]", "value": "lipophilic"},
      {"measurement": "IC50", "setting": "colon and breast cancers; [7]", "value": "≥ 20", "unit": "nM"}
    ]},
    {"smiles": "O=C1c2nc(CBr)[nH]c(=O)c2C(=O)c2nc(CBr)[nH]c(=O)c21", "note": "[compound 19, 2,7-Bis(bromomethyl)pyrimido[4,5-g]quinazoline-4,5,9,10(3H,8H)-tetrone]", "values": [
      {"measurement": "pKa", "setting": "physchem; anion formation near neutrality, read-out: pKa (conversion to an anion)", "value": 6.5},
      {"measurement": "IC50", "setting": "colon and breast cancers", "value": "> 1000", "unit": "nM"},
      {"measurement": "antitumor activity", "setting": "colon and breast cancers", "value": "poor activity"}
    ]},
    {"smiles": "Cn1c(CCl)nc2c(c1=O)C(=O)c1nc(CCl)n(C)c(=O)c1C2=O", "note": "[compound 22, 2,7-Bis(chloromethyl)-3,8-dimethylpyrimido[4,5-g]quinazoline-4,5,9,10(3H8H)-tetrone]", "values": [
      {"measurement": "antitumor activity", "setting": "colon and breast cancers", "value": "inactive"}
    ]},
    {"smiles": "Cc1nc2c(O)c3c(=O)[nH]c(CCl)nc3c(O)c2c(=O)[nH]1", "note": "[compound 28, 2-(Chloromethyl)-5,10-dihydroxy-7-methylpryimido[4,5-g]quinazoline-4,9(3H,8H)-dione]", "values": [
      {"measurement": "yield of hydrolysis product 38", "setting": "[3]; [8]", "value": "69±1", "unit": "%"},
      {"measurement": "yield of hydrolysis product 39", "setting": "[3]; [8]", "value": "31±1", "unit": "%"},
      {"measurement": "pKa", "setting": "physchem; aqueous buffer, from computer-fit of pH-rate profile of hydrolysis, read-out: kinetic pKa value", "value": 8.3},
      {"measurement": "observed rate constants in presence of 2-mercaptoethanol vs hydrolysis without it", "setting": "[4]", "value": "essentially the same"}
    ]},
    {"smiles": "Cc1nc2c(O)c3c(=O)n(C)c(CCl)nc3c(O)c2c(=O)n1C", "note": "[compound 35, 2-(Chloromethyl)-5,10-dihydroxy-3,7,8-trimethylpyrimido[4,5-g]quinazoline-4,9(3H,8H)-dione]", "values": [
      {"measurement": "stability in protic solvent", "setting": "[3]; any protic solvent", "value": "rapidly eliminates HCl"},
      {"measurement": "k1, rate constant for elimination of chloride from the monoanion", "setting": "[3]; monoanion, anaerobic aqueous buffer, 30.0 °C", "value": 24, "unit": "s⁻¹"},
      {"measurement": "rates of hydrolysis", "setting": "[3]; much above pH 8", "value": "stopped-flow rates"}
    ]},
    {"smiles": "Cc1nc2c(O)c3c(=O)[nH]c(C)nc3c(O)c2c(=O)[nH]1", "note": "[compound 43]", "values": [
      {"measurement": "stability toward oxygen relative to reduced anthracyclines", "setting": "[5]", "value": "more stable toward oxygen than reduced anthracyclines"},
      {"measurement": "rate of oxidation of the hydroquinone monoanion", "setting": "[5]; [9]", "value": 0.046, "unit": "s⁻¹"},
      {"measurement": "fold slower oxidation of 43^- than 44^-", "setting": "[5]; monoanions", "value": 128, "unit": "fold"},
      {"measurement": "k1, rate of oxidation of the neutral species", "setting": "[5]; neutral hydroquinone, aerobic aqueous buffer, 30.0 °C", "value": 0.001, "unit": "s⁻¹"},
      {"measurement": "rate of oxidation at physiological pH", "setting": "[5]", "value": "1.7×10^-2 sec^-1"},
      {"measurement": "pKa", "setting": "physchem; aerobic aqueous buffer, from pH-rate profile of oxidation, read-out: pKa1 (hydroquinone acid dissociation constant from pH-rate data)", "value": 7.78},
      {"measurement": "acid dissociation constant (pKa) determined previously", "setting": "[6]", "value": "8.26±0.15"}
    ]},
    {"smiles": "Cc1nc2c(O)c3c(=O)n(C)c(C)nc3c(O)c2c(=O)n1C", "note": "[compound 44]", "values": [
      {"measurement": "stability toward oxygen relative to reduced anthracyclines", "setting": "[5]", "value": "more stable toward oxygen than reduced anthracyclines"},
      {"measurement": "rates of oxidation", "setting": "[5]; at or above pH 9", "value": "stopped flow rates"},
      {"measurement": "rate of oxidation of the hydroquinone monoanion", "setting": "[5]; [9]", "value": 5.8, "unit": "s⁻¹"},
      {"measurement": "rate of oxidation at physiological pH", "setting": "[5]", "value": "9×10^-3 sec^-1"}
    ]}
  ]
}
